Reference: patent US10752587B2, “Homobispiperidinyl derivatives as liver X receptor beta agonists, compositions and their use” (Merck Sharp & Dohme Corp., priority 2015, dated 2020)
Read-outs that look alike come from different tables or passages of the source.

Legend:
[1] = target: T1, glutathione-S-transferase (GST) tagged LXRbeta LBD (ligand binding domain) (Homo sapiens, UniProt P55055); assay: LanthaScreen TR-FRET Liver X Receptor Coactivator Assay, co-activator recruitment to LXRbeta LBD; format: biochemical; settings: for Emax: read-out: LXR beta Activity @ max dose (%); for EC50: potency (Inflection Point, IP), co-activator recruitment to LXRbeta LBD, in relation to T0901317
T1 construct: purchased Invitrogen pv4658.pps
T1 sequence (P55055 222-460 limits assumed): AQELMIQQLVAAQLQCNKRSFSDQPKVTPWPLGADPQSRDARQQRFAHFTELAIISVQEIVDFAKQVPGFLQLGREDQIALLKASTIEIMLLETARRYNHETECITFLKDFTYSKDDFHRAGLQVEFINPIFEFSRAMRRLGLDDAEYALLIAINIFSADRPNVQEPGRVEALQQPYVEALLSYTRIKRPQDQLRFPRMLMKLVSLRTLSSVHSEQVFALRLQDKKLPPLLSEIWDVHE
In short: (§1)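 Compound-induced coactivator recruitment by the GST-fused ligand binding domain, detected as TR-FRET between Tb-labelled anti-GST antibody and fluorescein-tagged coactivator peptide after room-temperature incubation. IP and Emax expressed versus T0901317 as reference agonist.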

[2] = target: T2, glutathione-S-transferase (GST) tagged LXRalpha LBD (ligand binding domain) (Homo sapiens, UniProt Q13133); assay: LanthaScreen TR-FRET Liver X Receptor Coactivator Assay, co-activator recruitment to LXRalpha LBD; format: biochemical; settings: for Emax: read-out: LXR alpha Activity @ max dose (%); for EC50 / LXR alpha IP (nM): potency (Inflection Point, IP), co-activator recruitment to LXRalpha LBD, in relation to T0901317; for EC50: read-out: LXR alpha IP
T2 construct: purchased Invitrogen pv4655
T2 sequence (Q13133 209-447 limits assumed): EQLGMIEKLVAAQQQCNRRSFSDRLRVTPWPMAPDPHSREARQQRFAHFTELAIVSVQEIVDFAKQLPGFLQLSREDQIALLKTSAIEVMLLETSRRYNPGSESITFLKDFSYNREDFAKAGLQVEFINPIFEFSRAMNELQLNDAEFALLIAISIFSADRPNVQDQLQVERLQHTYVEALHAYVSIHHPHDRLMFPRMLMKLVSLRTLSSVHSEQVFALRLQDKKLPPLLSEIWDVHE
In short: as §1

[3] = efficacy at max dose, in relation to reference dual agonist T0901317

Compound | Emax [1, 3] | EC50 ([1]; read-out: LXR beta IP) | Emax [2, 3] | EC50 [2] | LXR alpha IP (nM) [2] | EC50 ([1]; LXR beta IP (nM)) | Emax [1] | Emax [2]
CN(C)C(=O)c1ccc(N2CCC(CC3CCN(C(=O)[C@](O)(c4cccc(Cl)c4)C(F)(F)F)CC3)CC2)nc1Cl [Example 7-69, 2-chloro-6-[4-({1-[(2R)-2-(3-chlorophenyl)-3,3,3-trifluoro-2-hydroxypropanoyl]piperidin-4-yl}methyl)piperidin-1-yl]-N,N-dimethylpyridine-3-carboxamide] | 82% | 3 nM | 30% | 70 nM |  |  |  | 
COc1cccc([C@@](O)(C(=O)N2CCCC(CC3CCN(c4ccc(C(=O)N(C)C)c(Cl)c4)CC3)CC2)C(F)(F)F)c1 (stereo partly drawn) [Example 2-161, 2-chloro-N,N-dimethyl-4-[4-({1-[(2R)-3,3,3-trifluoro-2-hydroxy-2-(3-methoxy-phenyl)propanoyl]azepan-4-yl}methyl)piperidin-1-yl]benzamide] | 28% | 13 nM | 0% |  | NO IP |  |  | 
CNC(=O)c1ccc(N2CCC(CC3CCN(C(=O)[C@](O)(c4cc(F)cc(OC)c4)C(F)(F)F)CC3)CC2)cc1Cl [Example 7-118, 2-chloro-N-methyl-4-[4-({1-[(2R)-3,3,3-trifluoro-2-(3-fluoro-5-methoxyphenyl)-2-hydroxypropanoyl]piperidin-4-yl}methyl)piperidin-1-yl]benzamide] | 98% | 7 nM | 20% | 243 nM |  |  |  | 
CNC(=O)c1ccc(N2CCC(OC3CCN(C(=O)C(O)(c4cccc(OC)c4)C(F)(F)F)CC3)CC2)cc1Cl (stereo not drawn) [Example 7-32, 2-chloro-N-methyl-4-[4-({1-[3,3,3-trifluoro-2-hydroxy-2-(3-methoxyphenyl)propanoyl]piperidin-4-yl}oxy)piperidin-1-yl]benzamide] | 92% | 184 nM | 18% | 4240 nM |  |  |  | 
CN(C)C(=O)c1ccc(N2CCC(CC3(C)CCN(C(=O)[C@](O)(c4cccc(Cl)c4)C(F)(F)F)CC3)CC2)nc1Cl [Example 7-47, 2-chloro-6-[4-({1-[(2R)-2-(3-chlorophenyl)-3,3,3-trifluoro-2-hydroxypropanoyl]-4-methylpiperidin-4-yl}methyl)piperidin-1-yl]-N,N-dimethylpyridine-3-carboxamide] | 66% | 3 nM | 22% | 60 nM |  |  |  | 
CN(C)C(=O)c1ccc(N2CCC(CC3CCN(C(=O)C(O)(c4ccccc4)c4ccsc4)CC3)CC2)nc1Cl (stereo not drawn) [Example 7-96, 2-chloro-6-[4-({1-[hydroxy(phenyl)thiophen-3-ylacetyl]piperidin-4-yl}methyl)piperidin-1-yl]-N,N-dimethylpyridine-3-carboxamide] |  |  |  |  | NO IP | 89 nM | 23% | 5%
COc1cccc([C@@](O)(C(=O)N2CCC(C)(CC3CCN(c4ccc(C(=O)N(C)C)c(C)c4)CC3)CC2)C(F)(F)F)c1 [Example 2-80, N,N,2-trimethyl-4-[4-({4-methyl-1-[(2R)-3,3,3-trifluoro-2-hydroxy-2-(3-methoxyphenyl)propanoyl]piperidin-4-yl}methyl)piperidin-1-yl]benzamide] | 19% | 19 nM | 0% |  | NO IP |  |  | 
CN(C)C(=O)c1ncc(N2CCC(CC3CCN(C(=O)C(O)(c4cccc(C(F)(F)F)c4)C(F)(F)F)CC3)CC2)cc1Cl (stereo not drawn) [Example 2-5, 3-chloro-N,N-dimethyl-5-{4-[(1-{3,3,3-trifluoro-2-hydroxy-2-[3-(trifluoromethyl)phenyl]propanoyl}piperidin-4-yl)methyl]piperidin-1-yl}pyridine-2-carboxamide] | 57% | 29 nM | 19% | 752 nM |  |  |  | 
CN(C)C(=O)c1ccc(N2CCC(CC3CCN(C(=O)[C@@](O)(c4cccc(F)c4)C(F)(F)F)CC3)CC2)nc1Cl [Example 7-73, 2-chloro-N,N-dimethyl-6-[4-({1-[(2S)-3,3,3-trifluoro-2-(3-fluorophenyl)-2-hydroxypropanoyl]piperidin-4-yl}methyl)piperidin-1-yl]pyridine-3-carboxamide] | 128% | 47 nM | 47% | 922 nM |  |  |  | 
